From ChEMBL document CHEMBL1148151, “Micromide and guamamide: cytotoxic alkaloids from a species of the marine cyanobacterium Symploca” (J Nat Prod, 2004)

Test system: KB
Experiment: Cytotoxicity against human KB cells
Format: functional, cell-based

SMILES	IC50 [nM]
CCC[C@H](CC(=O)N[C@@H](Cc1ccccc1)C(=O)N(C)[C@@H](C(=O)N[C@H](C(=O)N(C)[C@H](C(=O)N(C)[C@@H](Cc1ccccc1)C(=O)N(C)Cc1nccs1)[C@@H](C)CC)C(C)C)C(C)C)OC [MICROMIDE]	260
CCCCCCCCCCCC(=O)OC(C)C(OC(C)=O)C(C)C(=O)NC[C@H](O)CC(=O)OC (some centres not stated) [GUAMAMIDE]	1200
